This test deals with SRC. In words: High throughput kinase-activity mapping (HT-KAM) of treated cell extracts. The test is classed as cell-based. Particulars: WiDr cells treated 8 hours with vemurafenib ± gefitinib or cetuximab; FIG. 1B. On the procedure:
For samples to be analyzed with the HT-KAM platform, cells at ˜85% confluency were washed three times with cold PBS and lysed with freshly prepared 1× cell lysis buffer (1 ml per 2.5×10^6 cells) (lOX Cell Lysis Buffer, Cell Signaling; cat. #9803) complemented with 1× of Halt Protease & Phosphatase (100×, ThermoScientific; cat. #1861281). Cell lysates were collected and spun down at 14,000 rpm for 15 min at 4° C. and supernatants stored at −80° C. For samples to be analyzed by western blot, cell lysates were prepared with RIPA lysis buffer (150 mM NaCl, 0.1% SDS, 1% Nonidet P40, 1% sodium deoxycholate and 10 mM sodium phosphate, pH 7.2) supplemented with protease and phosphatase inhibitors. After clearing by centrifugation at 12,000 rpm for 10 minutes at 4° C., the lysates were analyzed as described in the respective experiments.
This high throughput kinase-activity mapping (HT-KAM) platform uses arrays of peptides that act as sensors of phosphorylation activity (7). The phospho-catalytic signature of samples is established from simultaneously occurring ATP-consumption tests measured in the presence of individual peptides that are experimentally isolated from each other. […] Luminescence is acquired using the Synergy 2 Multi-Mode Microplate Reader from BioTek. Luminescence data are inversely correlated with the amount of kinase activity. […]

`CCCS(=O)(=O)Nc1ccc(F)c(C(=O)c2c[nH]c3ncc(-c4ccc(Cl)cc4)cc23)c1F` [vemurafenib, N-[3-[5-(4-chlorophenyl)-1H-pyrrolo[2,3-b]pyridine-3-carbonyl]-2,4-difluorophenyl]propane-1-sulfonamide]: the SRC kinase activity entry was “most significantly increased kinase activity”.
